We go through 25 compounds from patent US20210300900A1, “OGA INHIBITOR COMPOUNDS” (Janssen Pharmaceutica NV, priority 2018, published 2021).

SMILES strings stand for the structures.

Assay [1] has as its target T1, recombinant human Meningioma Expressed Antigen 5 (MGEA5), also referred to as O-GcNAcase (OGA) (Homo sapiens, UniProt O60502).
T1 construct: Full length OGA enzyme was purchased at OnGene (cat #TP322411); purchased OnGene (so in the source)
T1 sequence (O60502 1-916): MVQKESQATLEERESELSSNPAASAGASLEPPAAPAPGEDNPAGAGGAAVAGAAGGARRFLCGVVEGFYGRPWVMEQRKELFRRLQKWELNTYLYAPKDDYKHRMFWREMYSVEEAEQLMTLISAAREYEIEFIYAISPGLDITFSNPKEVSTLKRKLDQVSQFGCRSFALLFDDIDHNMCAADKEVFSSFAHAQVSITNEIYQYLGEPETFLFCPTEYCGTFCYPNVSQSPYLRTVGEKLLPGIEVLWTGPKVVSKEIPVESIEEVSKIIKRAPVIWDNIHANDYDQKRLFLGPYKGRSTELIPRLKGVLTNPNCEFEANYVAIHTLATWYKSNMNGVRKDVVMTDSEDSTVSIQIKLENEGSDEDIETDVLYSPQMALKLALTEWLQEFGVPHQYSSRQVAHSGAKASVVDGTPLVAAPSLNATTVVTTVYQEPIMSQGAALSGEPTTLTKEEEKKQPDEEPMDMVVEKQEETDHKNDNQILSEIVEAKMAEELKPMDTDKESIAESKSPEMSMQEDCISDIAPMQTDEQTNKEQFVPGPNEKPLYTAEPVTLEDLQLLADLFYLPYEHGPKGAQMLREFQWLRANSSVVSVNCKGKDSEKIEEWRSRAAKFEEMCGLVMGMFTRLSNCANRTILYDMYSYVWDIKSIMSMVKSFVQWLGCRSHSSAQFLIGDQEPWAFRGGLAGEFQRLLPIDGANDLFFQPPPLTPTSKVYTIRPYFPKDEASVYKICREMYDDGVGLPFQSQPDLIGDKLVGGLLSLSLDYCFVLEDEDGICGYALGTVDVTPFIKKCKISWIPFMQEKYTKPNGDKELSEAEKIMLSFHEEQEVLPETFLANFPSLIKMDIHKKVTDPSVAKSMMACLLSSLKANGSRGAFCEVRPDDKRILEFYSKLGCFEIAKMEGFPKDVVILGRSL
Briefly: OGA biochemical assay (inhibition of FM-GlcNAc hydrolysis, fluorescence). Particulars: FM-GlcNAc substrate; for Emax: read-out: Enzymatic Emax (%); for IC50: read-out: Enzymatic hOGA, pIC50 (converted). The source says:
The assay is based on the inhibition of the hydrolysis of fluorescein mono-β-D-N-Acetyl-Glucosamine (FM-GlcNAc) (Mariappa et al. 2015, Biochem J 470:255) by the recombinant human Meningioma Expressed Antigen 5 (MGEA5), also referred to as O-GcNAcase (OGA). The hydrolysis FM-GlcNAc (Marker Gene technologies, cat #M1485) results in the formation of B-D-N-glucosamineacetate and fluorescein. The fluorescence of the latter can be measured at excitation wavelength 485 nm and emission wavelength 538 nm. An increase in enzyme activity results in an increase in fluorescence signal. Full length OGA enzyme was purchased at OnGene (cat #TP322411). The enzyme was stored in 25 mM Tris.HCl, pH 7.3, 100 mM glycine, 10% glycerol at −20° C. Thiamet G and GlcNAcStatin were tested as reference compounds (Yuzwa et al. 2008 Nature Chemical Biology 4:483; Yuzwa et al. 2012 Nature Chemical Biology 8:393). The assay was performed in 200 mM Citrate/phosphate buffer supplemented with 0.005% Tween-20. 35.6 g Na2HPO4 2H2O (Sigma, #C0759) were dissolved in 1 L water to obtain a 200 mM solution. 19.2 g citric acid (Merck, #1.06580) was dissolved in 1 L water to obtain a 100 mM solution. pH of the sodiumphosphate solution was adjusted with the citric acid solution to 7.2. The buffer to stop the reaction consists of a 500 mM Carbonate buffer, pH 11.0. 734 mg FM-GlcNAc were dissolved in 5.48 mL DMSO to obtain a 250 mM solution and was stored at −20° C. OGA was used at a 2 nM concentration and FM-GlcNAc at a 100 uM final concentration. Dilutions were prepared in assay buffer.
50 nl of a compound dissolved in DMSO was dispensed on Black Proxiplate TM 384 Plus Assay plates (Perkin Elmer, #6008269) and 3 μl fl-OGA enzyme mix added subsequently. Plates were pre-incubated for 60 min at room temperature and then 2 μl FM-GlcNAc substrate mix added. […] Plates were briefly centrifuged for 1 min at 1000 rpm and incubate at room temperature for 6 h. To stop the reaction 5 μl STOP buffer were added and plates centrifuge again 1 min at 1000 rpm. Fluorescence was quantified in the Thermo Scientific Fluoroskan Ascent or the PerkinElmer EnVision with excitation wavelength 485 nm and emission wavelength 538 nm.
For analysis a best-fit curve is fitted by a minimum sum of squares method. From this an IC50 value and Hill coefficient was obtained. High control (no inhibitor) and low control (saturating concentrations of standard inhibitor) were used to define the minimum and maximum values.

Assay [2] has as its target T2, OGA (Homo sapiens, UniProt O60502).
T2 construct: endogenous in cells; host or cells: HEK293 cells inducible for P301L mutant human Tau (isoform 2N4R)
T2 sequence (O60502 1-916): T1 sequence (O60502 1-916)
Briefly: OGA cellular assay (ICC detection of O-GlcNAcylated proteins in HEK293 cells inducible for P301L mutant human Tau). Type of assay: cell-based. As to conditions: 6 hours incubation; for Emax: HEK293, HEK293 cells inducible for P301L mutant human Tau, maximum = Thiamet G 200 uM; for EC50: HEK293 cells inducible for P301L mutant human Tau, read-out: Cellular hOGA, pEC50 (converted). Here is the method: HEK293 cells inducible for P301L mutant human Tau (isoform 2N4R) were established at Janssen. Thiamet-G was used for both plate validation (high control) and as reference compound (reference EC50 assay validation). OGA inhibition is evaluated through the immunocytochemical (ICC) detection of O-GlcNAcylated proteins by the use of a monoclonal antibody (CTD110.6; Cell Signaling, #9875) detecting O-GlcNAcylated residues as previously described (Dorfmueller et al. 2010 Chemistry & biology, 17:1250). Inhibition of OGA will result in an increase of O-GlcNAcylated protein levels resulting in an increased signal in the experiment. Cell nuclei are stained with Hoechst to give a cell culture quality control and a rough estimate of immediate compounds toxicity, if any. ICC pictures are imaged with a Perkin Elmer Opera Phenix plate microscope and quantified with the provided software Perkin Elmer Harmony 4.1.
Cells were propagated in DMEM high Glucose (Sigma, #D5796) following standard procedures. 2 days before the cell assay cells are split, counted and seeded in Poly-D-Lysine (PDL) coated 96-wells (Greiner, #655946) plate at a cell density of 12,000 cells per cm^2 (4,000 cells per well) in 100 μl of Assay Medium (Low Glucose medium is used to reduce basal levels of GlcNAcylation) (Park et al. 2014 The Journal of biological chemistry 289:13519). At the day of compound test medium from assay plates was removed and replenished with 90 μl of fresh Assay Medium. 10 μl of compounds at a 10 fold final concentration were added to the wells. Plates were centrifuged shortly before incubation in the cell incubator for 6 hours. DMSO concentration was set to 0.2%. Medium is discarded by applying vacuum. For staining of cells medium was removed and cells washed once with 100 μl D-PBS (Sigma, #D8537). From next step onwards unless other stated assay volume was always 50 μl and incubation was performed without agitation and at room temperature. Cells were fixed in 50 μl of a 4% paraformaldehyde (PFA, Alpha aesar, #043368) PBS solution for 15 minutes at room temperature. […] Before analysis samples were washed 2 times manually for 5 minutes in ICC base buffer.
Imaging is performed using Perkin Elmer Phenix Opera using a water 20×objective and recording 9 fields per well. Intensity readout at 488 nm is used as a measure of O-GlcNAcylation level of total proteins in wells. To assess potential toxicity of compounds nuclei were counted using the Hoechst staining. IC50-values are calculated using parametric non-linear regression model fitting. As a maximum inhibition Thiamet G at a 200 uM concentration is present on each plate. In addition, a concentration response of Thiamet G is calculated on each plate.

As a reminder, the Emax is the maximal effect, on the per cent scale that the assay sets. As for `Cc1cc(C[C@H]2CCCN(C(C)c3cc(C4CC4)[nH]n3)C2)cc(C)n1` (mixture of isomers) [Product 21], in assay [1], the Emax was found to be 101% and the IC50 was 0.0245 µM. Also, in assay [2], the Emax was 59% and the EC50 was 0.468 µM.

Regarding `CCOc1cnc(C(C)N2CCC[C@H](Cc3cc(C)nc(C)c3)C2)o1` (mixture of isomers) [Product 30], in assay [1], the Emax was found to be 101% and the IC50 is 0.0102 µM. Besides, in assay [2], the Emax was 60% and the EC50 is 0.49 µM.

As for `CCC(=O)Nc1cncc(C(C)N2CCC[C@H](Cc3cc(C)nc(C)c3)C2)c1` (mixture of isomers) [Product 38], in assay [1], the Emax worked out at 99% and the IC50 was 0.0708 µM. In assay [2], the maximal response (Emax) was 3% and the EC50 was more than 1 µM.

Regarding `CNC(=O)c1cncc(C(C)N2CCC[C@H](Cc3cc(C)nc(C)c3)C2)c1` (mixture of isomers) [Product 40], in assay [1], the Emax came to 101% and the IC50 is 0.0115 µM. Also, in assay [2], the Emax was found to be 72% and the EC50 is 0.407 µM.

Consider `COc1cncc(C(C)N2CCC[C@H](Cc3cc(C)nc(C)c3)C2)c1` (mixture of isomers) [Product 43], for which, in assay [1], the Emax amounted to 101% and the IC50 is 0.038 µM. For the same compound, in assay [2], the Emax is 53% and the EC50 is 0.933 µM.

With `COc1cccc(C(C)N2CCCC(c3cc(C)nc(C)c3)C2)n1` (stereo not shown) [Product 73], in assay [1], the Emax was found to be 96% and the IC50 was 0.741 µM.

Take `COc1cc(C2CCCN(C(C)c3cc(NC(C)=O)[nH]n3)C2)cc(C)n1` (stereo not shown) [Product 75]: in assay [1], the Emax is 95% and the IC50 was 0.562 µM.

As for `COc1cc(OC2CCCN(C(C)c3nc(OC)ccc3F)C2)cc(C)n1` (stereo not shown) [Product 81], in assay [1], the Emax came to 99% and the IC50 is 0.562 µM.

With `CC(=O)Nc1cc(C(C)N2CCCC(CNc3cc(C)nc(C)c3)C2)[nH]n1` (stereo not shown) [Product 83], in assay [1], the Emax turned out to be 103% and the IC50 is 0.0603 µM.

For `CC(=O)Nc1cc(C(C)N2CCCC(CNc3cc(C)nc(C)c3)C2)[nH]n1` (stereo not shown) [Product 87], the IC50 in assay [1] was 0.0288 µM.

`COc1cccc([C@@H](C)N2CCC[C@H](CNc3cc(C)nc(C(F)(F)F)c3)C2)n1` [Product 92]: in assay [1], the “Enzymatic Emax (%)” value turned out to be 74% and the “Enzymatic hOGA; pIC50” value is 5.31.

Take `COc1cccc([C@H](C)N2CCC[C@H](CNc3cc(C)nc(C(F)(F)F)c3)C2)n1` [Product 93]: in assay [1], the “Enzymatic Emax (%)” value was 29% and the “Enzymatic hOGA; pIC50” value was less than 5.

Regarding `COc1cccc([C@@H](C)N2CCC[C@@H](CNc3cc(C)nc(C(F)(F)F)c3)C2)n1` [Product 94], in assay [1], the “Enzymatic Emax (%)” value is on record as 72% and the “Enzymatic hOGA; pIC50” value is on record as 5.24.

As for `CC(=O)Nc1cc(C(C)N2CC[C@@H](Cc3cc(C)nc(C)c3)C2)n[nH]1` (stereo partly shown) [Product 97], in assay [1], the Emax came to 94% and the IC50 was 0.575 µM.

As to `CC(=O)Nc1cc(C(C)N2CC[C@@H](Cc3cc(C)nc(C)c3)C2)n[nH]1` (stereo partly shown) [Product 104], in assay [1], the “Enzymatic Emax (%)” value amounted to 82% and the IC50 was 2.82 µM.

Regarding `COc1ccc(F)c([C@H](C)N2CC[C@H](Cc3ncc(F)cc3F)C2)n1` [Product 109], in assay [1], the Emax came out at 60% and the IC50 is 7.59 µM.

Turning to `CC(=O)Nc1cc(C(C)N2CC[C@H](Cc3ncc(C)nc3C)C2)n[nH]1` (stereo partly shown) [Product 110], in assay [1], the Emax was determined as 92% and the IC50 was 0.813 µM.

As for `COc1ccc(F)c(C(C)N2CC[C@H](Cc3ncc(C)nc3C)C2)n1` (stereo partly shown) [Product 113], in assay [1], the Emax was found to be 74% and the IC50 is 3.89 µM.

For the compound `CC(=O)Nc1cc(CN2CCCC(COc3cc(C)nc(C)c3)C2)n[nH]1` (stereo not shown) [Product 119], in assay [1], the Emax turned out to be 92% and the IC50 was 1.23 µM.

As for `CC(=O)Nc1nc(CN2CCC[C@H](Cc3cc(C)nc(C)c3)C2)c[nH]1` [Product 135], in assay [1], the Emax was 98% and the IC50 was 0.49 µM.

For `CC(=O)Nc1cc(C(C)N2CCCC(Oc3cc(C)nc(C(F)(F)F)c3)C2)n[nH]1` (stereo not shown) [Product 138], in assay [1], the Emax worked out at 81% and the IC50 is 2.45 µM.

For `CC(=O)Nc1ncc(CN2CCC[C@H](Cc3cc(C)nc(C)c3)C2)n1C` [Product 159], the IC50 in assay [1] is more than 10 µM.

Take `COc1ccc(C)c(CN2CCC[C@H](Cc3cc(C)nc(C)c3)C2)n1` [Product 160]: in assay [1], the Emax stood at 24% and the IC50 was more than 10 µM.

Turning to `CCOc1cc(CN2CCC[C@H](Cc3cc(C)nc(C)c3)C2)n(C)n1` [Product 161], in assay [1], the Emax is 52% and the IC50 was more than 10 µM.

`Cc1cc(C[C@H]2CCCN(Cc3cnc(C4CC4)[nH]3)C2)cc(C)n1` [Product 165]: in assay [1], the Emax was determined as 24% and the IC50 is more than 10 µM.
